# From article PMC6050274, “Buparlisib is a brain penetrable pan-PI3K inhibitor” (Scientific Reports, 2018)
# Several values for one entry are separate records, joined by “and”; a condition that tells them apart may be missing. Equal values may be shown once. Read-outs that look alike come from different tables or passages of the source.
# Assays:
# [1] = Plasma pharmacokinetics after i.v. and oral administration in male and female mice; format: in vivo, FVB mice; settings: for bioavailability: p.o. (5 mg/kg) vs i.v. (2 mg/kg), read-out: F (oral bioavailability); for Vd/F: read-out: Vz/F
# Protocol: Finally, we studied the pharmacokinetics of buparlisib in male and female mice and assessed the oral bioavailability in both genders by comparing the area-under-the-plasma concentration-time-curves (AUCs) following intravenous and oral administration. Both after oral and i.v. administration there was no difference in pharmacokinetics between male and female mice (Fig. 3C, Table 1).
# The pharmacokinetics of buparlisib were analysed in WT, Abcg2^−/−, Abcb1a/b^−/− and Abcb1a/b; Abcg2^−/− FVB mice. All knockout mice strains have been developed within our institute[41]–[43]. For i.v. administration, buparlisib was dissolved in DMSO and injected at a dose of 2 mg/kg. For oral administration, buparlisib was formulated in DMSO:Cremophor EL:water (1:1:8 v/v/v) and administered at 1, 2 or 5 mg/kg as indicated. Tail vein bleeding was used to collect blood at intermediate time points, whereas at the last time point blood was drawn by cardiac puncture and various tissue were collected. Plasma was obtained from whole blood by centrifugation (5 min, 5,000 rpm, 4 °C). After weighing, tissues were homogenized using a FastPrep®-24 (MP-Biomedicals, NY) in 1% (w/v) bovine serum albumin in water. Buparlisib was extracted from plasma and tissue homogenate by liquid-liquid extraction with ethyl acetate using AZD8055 as an internal standard.
# Buparlisib was measured in samples from in vitro transport assays and in vivo pharmacokinetic studies using an LC-MS/MS system comprised of an UltiMate 3000 LC Systems (Dionex, Sunnyvale, CA) and an API 4000 mass spectrometer (Sciex, Framingham, MA). Samples were run through a Securityguard C18 pre-column (Phenomenex, Utrecht, The Netherlands) prior to separation on a ZORBAX Extend-C18 column (Agilent, Santa Clara, CA). Elution was done using a in a 5 minute gradient from 20% to 95% B (mobile phase A was 0.1% HCOOH in water (v/v) and mobile phase B was methanol). 95% B was maintained for 3 min followed by re-equilibration at 20% B. Multiple reaction monitoring was performed at 411.3/367.2 (buparlisib) and 418.2/138.4 (AZD8055). Analyst® 1.6.2 software (AB Sciex; Foster City, CA) was used for system control and data analysis.
# As described in detail before, CETA results were analysed with the General linear model repeated measures procedure of SPSS (v22; SPSS Inc, Chicago, IL)[25]. PK solver was used to determine pharmacokinetic parameters. The standard error of the oral bioavailability was calculated using the formula below: SEF=F(SEAUCp.o./AUCp.o.)^2+(SEAUCi.v./AUCi.v.)^2 Buparlisib concentrations in WT and transporter knockout mice in vivo were compared using one-way analysis of variance followed by post hoc Bonferroni tests. Statistical differences between the buparlisib PK parameters in male and female mice were calculated as Bonferroni corrected p-values using multiple Student’s t-tests. Differences were considered statistically significant when p < 0.05.
# [2] = target: T1, murine P-gp (Abcb1a/Mdr1a) (Mus musculus, UniProt P21447); test: Concentration equilibrium transport assay (CETA), LLC-Mdr1a; format: in vitro ADME; settings: 100 nM
# T1 construct: expressed in transfected cells; host or cells: LLC-PK1 (LLC-Mdr1a)
# T1 sequence (P21447 whole entry): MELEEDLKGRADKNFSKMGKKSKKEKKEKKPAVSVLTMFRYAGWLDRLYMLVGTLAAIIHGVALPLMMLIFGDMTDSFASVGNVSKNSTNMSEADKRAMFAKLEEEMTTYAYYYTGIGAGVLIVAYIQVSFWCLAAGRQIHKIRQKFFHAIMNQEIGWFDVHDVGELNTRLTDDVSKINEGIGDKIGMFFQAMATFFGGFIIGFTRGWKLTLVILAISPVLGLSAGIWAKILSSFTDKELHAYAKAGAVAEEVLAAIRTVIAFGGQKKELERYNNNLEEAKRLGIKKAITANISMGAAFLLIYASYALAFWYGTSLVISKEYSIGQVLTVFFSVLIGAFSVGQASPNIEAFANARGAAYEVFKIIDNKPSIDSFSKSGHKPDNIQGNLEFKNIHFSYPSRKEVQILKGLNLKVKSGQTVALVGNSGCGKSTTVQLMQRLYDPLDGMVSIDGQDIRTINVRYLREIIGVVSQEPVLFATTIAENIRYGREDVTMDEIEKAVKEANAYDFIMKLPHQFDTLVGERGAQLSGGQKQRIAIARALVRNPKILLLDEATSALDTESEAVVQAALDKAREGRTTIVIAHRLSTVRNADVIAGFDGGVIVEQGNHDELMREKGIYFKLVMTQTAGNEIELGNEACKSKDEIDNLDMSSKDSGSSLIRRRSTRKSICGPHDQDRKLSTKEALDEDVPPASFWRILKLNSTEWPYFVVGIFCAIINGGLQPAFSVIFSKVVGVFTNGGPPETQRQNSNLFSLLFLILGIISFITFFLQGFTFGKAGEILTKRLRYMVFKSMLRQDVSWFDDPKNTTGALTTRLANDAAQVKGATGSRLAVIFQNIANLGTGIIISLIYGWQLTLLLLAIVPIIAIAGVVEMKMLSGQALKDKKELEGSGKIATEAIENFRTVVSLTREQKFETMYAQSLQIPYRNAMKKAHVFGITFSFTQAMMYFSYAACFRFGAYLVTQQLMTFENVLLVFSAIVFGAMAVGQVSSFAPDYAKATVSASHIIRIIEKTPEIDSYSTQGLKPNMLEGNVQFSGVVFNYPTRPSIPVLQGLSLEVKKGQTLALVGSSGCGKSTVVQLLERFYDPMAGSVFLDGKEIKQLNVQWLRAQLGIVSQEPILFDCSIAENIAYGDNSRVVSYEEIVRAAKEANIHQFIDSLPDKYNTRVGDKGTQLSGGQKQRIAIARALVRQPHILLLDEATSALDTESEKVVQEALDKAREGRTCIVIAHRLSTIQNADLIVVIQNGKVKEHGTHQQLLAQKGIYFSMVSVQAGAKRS
# Source text: Figure 1 Analysis of buparlisib substrate affinity for ABC transporters using in vitro transport assays. (A) The chemical structure of buparlisib. (B) A conventional transport assay (CTA) using LLC-PK1 cells in presence of zosuquidar to block endogenous (porcine) P-gp activity. […] (C) Concentration equilibrium transport assays (CETAs) using MDCK or LLC cells that overexpress murine BCRP, (Bcrp1), human BCRP, murine P-gp (Mdr1a) or human P-gp (MDR1). […] The P-gp inhibitor zosuquidar was used in all MDCK cell lines to inhibit endogenous P-gp activity and in LLC cell lines to validate possible P-gp-mediated translocations. […]
# Conventional bidirectional transport assays (CTAs) and concentration equilibrium transport assays (CETAs) were performed as described previously. […] Transwell leakiness was determined as Carboxyl-[^14C]-inulin translocation exceeding 1.5% per hour and these wells were excluded from the analysis. […]
# As described in detail before, CETA results were analysed with the General linear model repeated measures procedure of SPSS (v22; SPSS Inc, Chicago, IL)[25]. […] The standard error of the oral bioavailability was calculated using the formula below: SEF=F(SEAUCp.o./AUCp.o.)^2+(SEAUCi.v./AUCi.v.)^2 Buparlisib concentrations in WT and transporter knockout mice in vivo were compared using one-way analysis of variance followed by post hoc Bonferroni tests. […]
# [3] = FVB, mouse, plasma, iv, i.v. (2 mg/kg), female
# [4] = FVB, mouse, plasma, iv, i.v. (2 mg/kg), male
# [5] = FVB, mouse, plasma, po, p.o. (5 mg/kg), female
# [6] = FVB, mouse, plasma, po, p.o. (5 mg/kg), male
compound,measurement,setting,value
Nc1cc(C(F)(F)F)c(-c2cc(N3CCOCC3)nc(N3CCOCC3)n2)cn1 [buparlisib],Cmax,[1]; [3],1900 ± 410 ng/mL
same,half-life,[1]; [3],1.6 ± 0.07 h
same,Vd,"[1]; FVB, mouse, plasma, iv, i.v. (2 mg/kg), female, read-out: Vz",0.86 ± 0.14 L/kg
same,Cmax,[1]; [4],2100 ± 190 ng/mL
same,half-life,[1]; [4],1.67 ± 0.07 h
same,Vd,"[1]; FVB, mouse, plasma, iv, i.v. (2 mg/kg), male, read-out: Vz",0.8 ± 0.23 L/kg
same,concentration at 24 h,"[1]; FVB, mouse, plasma, oral, mice, 5 mg/kg, read-out: plasma level after 24 h",< 1 ng/mL and < 2.4 nM
same,bioavailability,"[1]; FVB, mouse, plasma, oral, female",112 ± 21.1%
same,bioavailability,"[1]; FVB, mouse, plasma, oral, male",103 ± 26.1%
same,CL/F,[1]; [5],5.33 mL/min/kg
same,Cmax,[1]; [5],3000 ± 490 ng/mL
same,Tmax,[1]; [5],0.67 ± 0.39 h
same,half-life,[1]; [5],1.4 ± 0.04 h
same,Vd/F,[1]; [5],0.63 ± 0.08 L/kg
same,CL/F,[1]; [6],5.17 mL/min/kg
same,Cmax,[1]; [6],3300 ± 1300 ng/mL
same,Tmax,[1]; [6],1 h
same,half-life,[1]; [6],1.44 ± 0.06 h
same,Vd/F,[1]; [6],0.64 ± 0.03 L/kg
same,oral bioavailability,"[1]; both genders, dose-corrected AUC oral vs i.v.",complete
same,Vd,"[1]; both sexes, FVB, mouse, plasma, intravenous, 2 mg/kg, mice, read-out: volume of distribution",< 1 L/kg
same,CL,"[1]; i.v. (2 mg/kg), female",0.37 ± 0.06 L/kg^.h
same,Plasma AUC 0-∞,"[1]; i.v. (2 mg/kg), female",5600 ± 860 ng/ml^.h
same,CL,"[1]; i.v. (2 mg/kg), male",0.33 ± 0.09 L/kg^.h
same,Plasma AUC 0-∞,"[1]; i.v. (2 mg/kg), male",6300 ± 1500 ng/ml^.h
same,difference in pharmacokinetics between male and female mice,[1]; oral and i.v. administration,no difference
same,Plasma AUC 0-∞,"[1]; p.o. (5 mg/kg), female",16000 ± 1700 ng/ml^.h
same,Plasma AUC 0-∞,"[1]; p.o. (5 mg/kg), male",16000 ± 1200 ng/ml^.h
same,substrate of murine P-gp,[2],not a substrate
